Measured values from patent US9533023B2, “EIF4E binding peptides” (Agency for Science, Technology and Research, priority 2010, dated 2017).
Square brackets hold non-standard residues; d marks the D form. Ends that are not written are not given here. Ac5c = NC1(C(=O)O)CCCC1; Aib = CC(C)(N)C(=O)O

What was measured:
[1] = biological target: T1, eIF4E (Homo sapiens, UniProt P06730); assay: Fluorescence-based thermal stability (thermal shift) assay, FTS; assay type: binding; details: for eIF4E binding / Tm effect in FTS assay: 10 μM eIF4E, 100 μM peptide
T1 construct: Full length human eIF4E was expressed and purified; made in house
T1 sequence (P06730 whole entry): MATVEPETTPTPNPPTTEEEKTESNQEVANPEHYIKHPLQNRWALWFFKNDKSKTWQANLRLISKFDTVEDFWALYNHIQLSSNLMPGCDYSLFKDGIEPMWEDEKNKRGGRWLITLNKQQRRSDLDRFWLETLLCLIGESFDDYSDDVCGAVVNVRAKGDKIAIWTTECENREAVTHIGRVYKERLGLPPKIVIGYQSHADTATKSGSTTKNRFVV
Text: Full length human eIF4E was expressed and purified as described in Brown, C.
A fluorescence based thermal shift assay was used to screen and rank the rationally designed eIF4E binding derivative peptides. The fluorescent dye Sypro Red was used to monitor thermal denaturation of eIF4E. Binding of the dye molecule to eIF4E, as it unfolds due to thermal denaturation, results in a sharp increase in the fluorescence intensity. The midpoint of this transition is termed the Tm. The thermal shift assay was conducted in the iCycler Real Time Detection System (Bio-Rad, Hercules, Calif.). The system contains a heating/cooling device for accurate temperature control and a charge-coupled device (CCD) detector for simultaneous imaging of the fluorescence changes in the wells of the microplate. […] The final protein concentration was 10 μM. Protein samples were incubated with derivative peptides at a concentration of a 100 μM. The plate was heated from 20 to 90° C. with a heating rate of 1° C./min.
where Ft is the fluorescence intensity at temperature T; Tm is the midpoint temperature of the protein-unfolding transition, Fpre and Fpost are the pretransitional and posttransitional fluorescence intensities, respectively, R is the gas constant, ΔHu is the enthalpy of protein unfolding, and ΔCpu is the heat capacity change on protein unfolding. In the absence of ligand, Tm=T0, ΔCpu=ΔC^T0pu, and ΔHu=ΔH^T0u.
To calculate the ligand-binding affinity at Tm for the derivative eIF4E binding peptides, Eq. (2) was used:
To compare binding affinities for the derivative peptides to eIF4E calculated from the thermal shift data, the binding affinity at temperature T (KL(T))) must be calculated. KL(T) can be calculated from KL(Tm) using Eq. (3A): […]
where KL(T) is the ligand association constant at temperature T, and ΔHL(T) is the van't Hoff enthalpy of binding at temperature T. The value of ΔHL(T) was taken to be 5 kcal/mol.

[2] = system: MCF-7 5′UTR_MYC_Gaussia reporter cell line; assay: Cap-dependent translation cell-based assay (Gaussia luciferase); details: 6 hours
Description: To determine the efficacy of these peptides, a cell-based system to assay changes in cap-dependent translation was designed. […] A reporter line derived from the MCF-7 cell line that stably expresses the 5′UTR_MYC_Gaussia reporter was generated. The robustness of this model system was determined using rapamycin, which inhibits cap-dependent translation by inhibiting mTOR from phosphorylating 4EBPs.
MCF-7 (5′UTR_MYC_Gaussia) cells were cultured in DMEM with 10% FCS. Twenty thousand cells were then seeded per well in 48-wells plates in DMEM serum-free media overnight at 37° C. […] Cells were then cultured in media containing 10% FCS with Rapamycin for 24 hrs and at concentrations of 100 nM, 10 nM, 1 nM, 0.1 nM. Gaussia-Luc activities in cells were measured using Gaussia Luciferase Assay Kit (NEB) with SpectraMax M5 (molecular Devices).

[3] = system: MCF-7 (5′UTR_MYC_Gaussia) cells; assay: WST-1 assay (cell viability); assay type: cell-based; details: 30 μM, 48 hours after treatment
Description: MCF-7 (5′UTR_MYC_Gaussia) cells were cultured in DMEM with 10% FCS. Twenty thousand cells were then seeded per well in 48-wells plates in DMEM serum-free media overnight at 37° C. Before overnight incubation, cells were incubated at room temperature for 30 mins. […] After 48 hrs of treatment, MCF-7 cells were incubated with Cell Proliferation Reagent WST-1(Roche) for 30 mins at 37° C. Absorbances of cell media were then read at 450 nm with SpectraMax M5.

[4] = system: MCF-7 (5′UTR_MYC_Gaussia) cells; assay: Propidium iodide staining and FACS analysis; assay type: cell-based; details: 48 hrs
Description: MCF-7 (5′UTR_MYC_Gaussia) cells were cultured in DMEM with 10% FCS. Two hundred fifty thousand cells were then seeded per well in 6-wells plates containing DMEM serum-free media overnight at 37° C. Before overnight incubation, cells were incubated at room temperature for 30 mins. […] A 1% DMSO and a PBS mock treatment was also carried out. Cells were harvested and fixed in 65% ethanol in PBS and incubated at 4° C. for 2 hrs. Cells were spun down and resuspended with Propidium iodide staining solution containing Rnase A. Cells were analyzed using LSR II (BD).

[5] = system: endogenous c-myc in MCF-7 cells; assay: Western blot of endogenous c-myc; assay type: cell-based; details: 15 μM peptide, 6 hours, vs PBS
Description: MCF-7 cells were cultured in DMEM with 10% FCS. Three hundred fifty thousand MCF-7 cells were then seeded per well in 6-wells plates containing DMEM serum-free media overnight at 37° C. […] A mock PBS treatment was also included. Cells were harvested at 6 hrs and lysed in RIPA buffer. Protein concentration was determined using a Lowry Assay kit (Bio-rad). Samples were loaded at 30 ug and blotted against monoclonal antibody c-myc (Sigma Aldrich #M4439). B-actin was blotted for as a loading control.

[6] = system: MCF-7 cells; assay: Annexin staining, flow cytometry; assay type: cell-based; details: 30 μM, 48 hours
Description: MCF-7 cells were cultured in DMEM with 10% FCS. Two hundred fifty thousand cells were then seeded per well in 6-wells plates containing DMEM serum-free media overnight at 37° C. […] A mock PBS treatment was also included. Cells were harvested, washed in PBS and spun down at 200 g for 5 mins. Cell pellets were resuspended in Annexin-VFLUOS labeling solution from Roche and incubated for 10-15 min at 15-25° C. Cells were then analyzed using LSR II (BD).

How did the “eIF4E binding / Tm effect in FTS assay” value [1] turn out when CC(C)C[C@H](NC(=O)[C@H](Cc1ccccc1)NC(=O)[C@H](CCC(=O)O)NC(=O)[C@H](CCCNC(=N)N)NC(=O)[C@H](CC(=O)O)NC(=O)[C@@H](N)Cc1ccc(O)cc1)C(=O)N[C@@H](CC(C)C)C(=O)NC1(C(=O)N[C@@H](Cc2ccccc2)C(=O)N[C@@H](CCC(N)=O)C(=O)N[C@@H](Cc2ccccc2)C(=O)O)CCCC1 [Tr2_AIB3_A5C, YDREFLL5FQF] was run?
The value was “significantly increased”.

How did the “inhibition of cap-dependent translation (luciferase output)” value (“inhibition of cap-dependent translation” for short) ([2]; 100 μM and 200 μM) turn out when GTKKRYDRE*LL5FQF [GT_eIF4G1_me5] was run?
The value was “some biological activity in a dose responsive manner”.

And the “inhibition of cap-dependent translation” value ([2]; non-TAT peptides, 400 μM)?
Its value is “significant decrease in luciferase output”.

And the “WST-1 assay, difference versus control peptide” value [3]?
Its value is “marginally significant”.

What about the “cell cycle populations (sub G1, G1, S, G2), words” value ([4]; non TAT peptides 400 μM, vs DMSO control) of the same compound?
Its value is “significant increase in the sub G1 population”.

How did the “luciferase activity, difference versus control peptide” value ([2]; 30 μM) turn out when “GT_eIF4G1: eIF4G1 14mer with N-terminal GT linker, no TAT (GTKKRYDREFLLGFQF; not fully specified (C-terminus))” was run?
Its value is “no significant difference”.

And the “WST-1 assay, difference versus control peptide” value [3]?
The value was “not significant”.

KRYDRE*LL5FQF [AC13] was tested. Which “drop in thermal shift from AC14 to AC13” value ([1]; difference vs AC14) did it give?
Its value is roughly 2.1 °C.

And the “inhibition of cap-dependent translation” value ([2]; non-TAT peptides, 400 μM)?
Its value is “noticeable drop in activity”.

For “SEQ ID NO: 20: 11mer control peptide with the conserved tyrosine mutated to alanine (ADREFLLGFQF; Control) [reference compound]”, which “eIF4E binding / Tm effect in FTS assay” value [1] is on record?
Its value is “all eIF4E binding is lost”.

Which “eIF4E binding / Tm effect in FTS assay” value [1] does the source give for “SEQ ID NO: 29: Tr2_AIB3_A5C with alanine at position 625 (YAREFLL[Ac5c]FQF; not fully specified (C-terminus))” here?
The value was “no significant increase or decrease in potency”.

With “SEQ ID NO: 31: Tr2_AIB3_A5C with alanine at position 627 (YDRAFLL[Ac5c]FQF; not fully specified (C-terminus))” as the compound, how does the “eIF4E binding / Tm effect in FTS assay” value [1] read?
Its value is “no significant increase or decrease in potency”.

Which results are given for “TAT_eIF4G1_Cntrl: control peptide equivalent to TAT_eIF4G1 (YGRKKRRQRRRGTKKRADREFAAGFQF; TAT_eIF4G1_Cntrl)”?
cell cycle populations (sub G1, G1, S, G2), words ([4]; TAT fused peptides 30 μM, vs PBS mock): no substantive differences; endogenous c-myc expression [5]: identical; annexin staining of cells (apoptosis) [6]: few cells that could be stained

“Tr2_AIB1: Tr2 peptide with D625 replaced by aminoisobutyric acid (Aib) (Y[Aib]REFLLGFQF)” was tested. Which “eIF4E binding / Tm effect in FTS assay” value [1] did it give?
Its value is “severely attenuated peptide binding”.

“Tr2_AIB2: Tr2 peptide with E627 replaced by Aib (YDR[Aib]FLLGFQF)” was tested. Which “eIF4E binding / Tm effect in FTS assay” value [1] did it give?
The value was “abolished measurable peptide binding”.

For “Tr2_AIB3: Tr2 peptide with G631 replaced by Aib (YDREFLLXFQF; Aib at position 631; Tr2_AIB3)”, which “eIF4E binding / Tm effect in FTS assay” value [1] is on record?
Its value is “increased the Tm”.

With “Tr2_AIB4: Tr2 peptide with Q633 replaced by Aib (YDREFLLGF[Aib]F)” as the compound, how does the “eIF4E binding / Tm effect in FTS assay” value [1] read?
Its value is “severely attenuated peptide binding”.

What does the source list for YGRKKRRQRRR [TAT, reference compound]?
eIF4E binding / Tm effect in FTS assay [1]: no binding; inhibition of cap-dependent translation (luciferase output) ([2]; TAT peptides, up to 100 μM): not inhibited by TAT alone with only a slight decrease at 100 μM; endogenous c-myc expression [5]: identical; annexin staining of cells (apoptosis) [6]: few cells that could be stained
